Measured values: US8217014B2, “Pharmaceutical composition for treatment of blood clotting disorder” (National University Corporation Nagoya University, priority 2006, dated 2012)
Several values for one entry are separate records, joined by “and”; a condition that tells them apart may be missing. Equal entries are not always repeated.

Columns and labels:
coagulation factor VII = experiment: Coagulation activity of coagulation factor VII in the plasma of hemophilia patients
HCV = experiment: Eradication of HCV in HCV-positive patients with hemophilia; type: in vivo, human
Experimental: (§1) Ribavirin was orally administered, while the interferon was intravenously administered.
(§2) Interferon α-2b alone was administered to the patients Nos. 1, 2, 3, and 5, prior to the combined administration of this Example 1. In the interferon single dosing period, the interferon was administered to the patients Nos. 1, 2, 3, and 5 every day with the dosage of 6 MU (million units) per day for the first 2 weeks and 3 times per week for the subsequent 22 weeks. […] In the combined administration of this Example 1, Intron A was administered to all the patients every day with the dosage of 6 MU per day for the first 2 weeks and 3 times per week for the subsequent 22 weeks.
The HCV-RNA level was measured at the start of treatment with Amplicor HCV Assay, version 2.0 (Roche Diagnostic Systems).
Eradication of HCV was considered positive when the absence of serum HCVRNA was maintained for 24 weeks after the treatment was completed.

coagulation factor X = experiment: Coagulation activity of coagulation factor X in the plasma; type: in vivo, human; conditions: before and after the start of the combined dosing, data not shown
[1] = tested on: prothrombin time (PT) in the plasma; experiment: Prothrombin time (PT) in the plasma of chronic hepatitis C patients with or without hemophilia; type: in vivo, human; conditions: for PT Increase Rate: 12 weeks after start versus before; for PT After Therapy: 12 weeks after start
Experimental: Of these patients, 9 patients were with hemophilia and 27 hepatitis patients were without hemophilia. Pegintron was administered to all the patients once a week with the dosage of 1.5 μg/Kg for 48 weeks, whereas Rebetol was simultaneously administered to the 9 hemophilia patients with the dosage of Administration Example 1 (600 mg to 800 mg per day).
The prothrombin time (PT) in the plasma was measured for the patients before the start of the dosing and 12 weeks after the start of the dosing, for the purpose of evaluation of the coagulation activity.

[2] = tested on: coagulation factor X mRNA; experiment: mRNA expression of coagulation factor X, real-time quantitative RT-PCR, hepatic cell lines; type: cell-based; conditions: ribavirin 150 μg/ml in the presence of interferon α-2b 0.75 μg/ml; data not shown
Experimental: (§3) The mRNA expression levels of the coagulation factors VII and X and prothrombin were measured according to the protocols of real-time quantitative RT-PCR with ABI Prism 7700 Sequence Detection (Perkin Elmer Biosystems, Foster City, Calif., USA) and SYBR Green PCR kit (Perkin Elmer Biosystems). The real-time quantitative RT-PCR was repeated twice. The following […] were used for determination of the mRNA of the genes.

[3] = tested on: HCV-positive patients with hemophilia; experiment: Bleeding requiring treatment and use of clotting factors in hemophilia patients (patient logs); type: in vivo, human
Experimental: as §1, §2
The use of clotting factors was assessed by patient logs. The clotting factors are generally not used for patients with mild hemophilia. The doses (mean value) of the clotting factors before the combined dosing period of this Example 1, during the combined dosing period, and after the combined dosing period were evaluated. A significant difference at P<0.05 was evaluated by (paired) t-test. Ability to perform activities of daily living was assessed by interview.

[4] = tested on: coagulation factor VII mRNA in HepG2 cell line; experiment: mRNA expression of coagulation factor VII, real-time quantitative RT-PCR, HepG2 cell line; type: cell-based, human; conditions: ribavirin 150 μg/ml in the presence of interferon α-2b 0.75 μg/ml, 48 hours, p<0.02
Experimental: as §3

[5] = tested on: coagulation factor VII mRNA in hepatic parenchymal cell line; experiment: mRNA expression of coagulation factor VII, real-time quantitative RT-PCR, normal hepatic parenchymal cell line; type: cell-based; conditions: ribavirin 150 μg/ml in the presence of interferon α-2b 0.75 μg/ml, 48 hours, p<0.01
Experimental: as §3

prothrombin mRNA = experiment: mRNA expression of prothrombin, real-time quantitative RT-PCR, hepatic cell lines; type: cell-based; conditions: ribavirin 150 μg/ml in the presence of interferon α-2b 0.75 μg/ml; data not shown
Experimental: as §3

[6] = tested on: HCV-positive patients with hemophilia; experiment: Bleeding requiring treatment and use of clotting factors in hemophilia patients (patient logs); type: in vivo, human; conditions: 47 hemophilia patients with hepatitis C
[7] = 4 weeks after start of combined dosing, 9 patients

NC(=O)c1ncn([C@@H]2O[C@H](CO)[C@@H](O)[C@H]2O)n1 [ribavirin, 1-β-D-ribofuranosyl-1,2,4-triazole-3-carboxamide] was tested, and the “Factor VII coagulation activity increase in the 2 patients without significant increase” value (coagulation factor VII; 2 of the 9 patients (one HIV positive, one hepatitis C and hepatitis B virus positive)) was 5% and 8%, the “Factor VII coagulation activity increase, maximum” value (coagulation factor VII; [7]) was 28% and the “Factor VII coagulation activity increase, minimum” value (coagulation factor VII; [7]) was 5%. The “Factor VII Clotting Activity Increase Rate” value (coagulation factor VII; 4 weeks after start versus before start of combined dosing, 9 hemophilia patients, p<0.04) was 15.7 ± 8.8%, the “Factor VII Clotting Activity After Start of Therapy” value (coagulation factor VII; plasma, 4 weeks after start of combined dosing (ribavirin 600-800 mg/day + interferon α-2b), 9 hemophilia patients, before start 86.3 ± 7.6%) was 102.0 ± 10.3% and the “Eradication of HCV” value (HCV; oral ribavirin 600-800 mg/day combined with interferon α-2b (Intron A) for 24 weeks, YES = absence of serum HCV-RNA maintained 24 weeks after treatment, per patient (Nos. 1-8)) was “YES”. For the same molecule, the “change in coagulation activity of the coagulation factor X” value (coagulation factor X) was “No significant change”, the “PT Increase Rate” value ([1]; Hemophilia Group n = 9) was 9.4 ± 8.4% and the “PT After Therapy” value ([1]; Hemophilia Group n = 9, Rebetol 600-800 mg/day + Pegintron 1.5 μg/Kg once a week, before therapy 90.0 ± 12.2%) was 99.4 ± 14.3%. The “PT Increase Rate” value ([1]; Non-Hemophilia Group n = 27) was 5.4 ± 12.6%, the “PT After Therapy” value ([1]; Non-Hemophilia Group n = 27, Pegintron 1.5 μg/Kg once a week, combined administration, before therapy 94.9 ± 14.4%) was 100.0 ± 16.8% and the “mRNA induction of the coagulation factor X” value [2] was “No significant induction”. For the same molecule, the “monthly mean dosage of the clotting factors in the combined dosing period” value ([3]; 5 patients with moderate or severe hemophilia, ribavirin + interferon α-2b, standard deviation 1488, 3783 U (SD 2646) in the 6 months before, P<0.03) was 1605 U, the “monthly mean dosage of the clotting factors in the 6-month period after the combined dosing period” value ([3]; 5 patients with moderate or severe hemophilia, standard deviation 1528, 3783 U (SD 2646) in the 6 months before, P<0.06) was 1667 U and the “Times of Bleeding Requiring Treatment, After Therapy” value ([3]; monthly mean bleeding frequency treated with clotting factors, after the combined dosing period of ribavirin and interferon α-2b, patient (Nos. 1, 2, 3, 5, 8)) was 0.7 and 0.0 and 1.6 and 4.1 and 2.2. The “Times of Bleeding Requiring Treatment, During Therapy” value ([3]; monthly mean bleeding frequency treated with clotting factors, combined dosing period of ribavirin and interferon α-2b, patient (Nos. 1, 2, 3, 5, 8)) was 0.2 and 0.8 and 0.7 and 3.0 and 2.6, the “bleeding tendency in the combined dosing period compared with the interferon single dosing period” value ([3]; patients Nos. 1, 2, 3 and 5, ribavirin + interferon α-2b) was “significantly reduced” and the “mRNA induction of the coagulation factor VII” value [4] was “about 3 times”. The “mRNA induction of the coagulation factor VII” value [5] was “about 4 times” and the “mRNA induction of prothrombin” value (prothrombin mRNA) was “No significant induction”.

With interferon α-2b the “reduction of the bleeding tendency by single interferon dosing” value [6] was “No such reduction” and the “Elimination of HCV in interferon single dosing period” value (HCV; interferon α-2b alone, 6 MU per day for 2 weeks then 3 times per week for 22 weeks, patients Nos. 1, 2, 3, 5) was “not eliminated”.
